# Assay results as given in patent US8658611B2, “Apoptosis-inducing agent for prostate cancer cells” (priority 2005, dated 2014).
# Key:
# [1] = test system: Normal cells OUMS 24 (human immortalized fibroblast); assay: TUNEL staining after Ad-REIC plus HSP70 inhibitor or inducer; format: cell-based; conditions: OUMS24; Ad-REIC 20 MOI; agent 250 mM added 24 hours later; TUNEL 48 hours later
# [2] = test system: prostate cancer cells PC3; assay: as above; format: cell-based, human; conditions: Ad-REIC 20 MOI, agent 250 mM added 24 hours later, TUNEL 48 hours later
# Procedure: Normal cells OUMS 24 (human immortalized fibroblast) and prostate cancer cells PC3 were used for comparison. The cells were infected with Ad-REIC at 20 MOI. 24 hours later, an HSP70 inhibitor (heat shock protein inhibitor I, CALBIOCHEM, BIOCHEMICALS) and an HSP70 inducer (Geranyl-Geranyl Acetone) (250 mM each) were separately added to a culture solution. 48 hours later, TUNEL staining was performed to determine influence upon apoptosis. FIGS. 12 and 13 show staining images for OUMS24 and of PC3, respectively. In FIGS. 12 and 13, images on the left side indicate TUNEL-staining results and images on the right side indicate DAPI-staining results. […] That is, apoptosis was induced in normal cells with the use of the HSP70 inhibitor in combination. On the other hand, apoptosis expression was inhibited in cancer cells with the use of the HSP70 inducer in combination. Further, apoptosis induction was promoted with the use of the HSP70 inhibitor in combination.
smiles,measurement,setting,value
O=CN1CC/C(=C\c2ccc3c(c2)OCO3)C1=O [HSP70 inhibitor],TUNEL-positive cells with combined use with Ad-REIC,[1],a large number of TUNEL-positive cells
same,"TUNEL-positive cells with combined use with Ad-REIC, versus Ad-REIC alone",[2],greater than that obtained with the use of Ad-REIC alone
